Details in all cases: Compound concentration 10 µM
Assay [1] addresses D(3) dopamine receptor (Homo sapiens) (UniProt P35462).
Assay [2] concerns the target 5-hydroxytryptamine receptor 1E (Homo sapiens) (UniProt P28566).
For assay [3], the target named is T1, Alpha-2A adrenergic receptor (Homo sapiens) (UniProt P08913).
T1 sequence (whole entry): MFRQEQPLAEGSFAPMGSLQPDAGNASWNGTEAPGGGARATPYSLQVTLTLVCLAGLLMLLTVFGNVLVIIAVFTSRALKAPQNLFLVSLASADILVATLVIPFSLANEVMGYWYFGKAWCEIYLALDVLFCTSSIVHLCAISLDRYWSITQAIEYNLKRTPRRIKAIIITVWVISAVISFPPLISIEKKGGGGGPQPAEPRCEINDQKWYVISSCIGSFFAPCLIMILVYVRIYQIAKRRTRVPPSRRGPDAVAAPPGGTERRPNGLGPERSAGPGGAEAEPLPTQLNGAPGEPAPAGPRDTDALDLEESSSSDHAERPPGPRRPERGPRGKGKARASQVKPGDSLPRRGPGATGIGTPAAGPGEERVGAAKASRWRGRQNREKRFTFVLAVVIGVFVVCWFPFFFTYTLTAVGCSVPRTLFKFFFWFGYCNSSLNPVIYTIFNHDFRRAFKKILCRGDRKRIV

Assay [4] deals with 5-hydroxytryptamine receptor 6 (Homo sapiens) (UniProt P50406).
Sequence of 5-hydroxytryptamine receptor 6 (Homo sapiens) (P50406 whole entry): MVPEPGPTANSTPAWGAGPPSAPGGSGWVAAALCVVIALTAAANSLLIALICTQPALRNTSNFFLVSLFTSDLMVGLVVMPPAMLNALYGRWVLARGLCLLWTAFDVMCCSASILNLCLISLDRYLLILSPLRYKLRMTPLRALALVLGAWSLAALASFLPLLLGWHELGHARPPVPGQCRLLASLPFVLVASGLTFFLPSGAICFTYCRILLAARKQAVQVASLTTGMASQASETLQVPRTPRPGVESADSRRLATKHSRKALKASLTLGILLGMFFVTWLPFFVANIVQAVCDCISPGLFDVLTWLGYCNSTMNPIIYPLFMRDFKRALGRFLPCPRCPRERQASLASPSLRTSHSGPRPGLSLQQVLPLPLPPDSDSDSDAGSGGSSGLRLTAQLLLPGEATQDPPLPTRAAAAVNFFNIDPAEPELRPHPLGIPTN
In assay [5] the target is Muscarinic acetylcholine receptor M3 (Homo sapiens) (UniProt P20309).
Sequence of Muscarinic acetylcholine receptor M3 (Homo sapiens) (P20309 whole entry, looked up): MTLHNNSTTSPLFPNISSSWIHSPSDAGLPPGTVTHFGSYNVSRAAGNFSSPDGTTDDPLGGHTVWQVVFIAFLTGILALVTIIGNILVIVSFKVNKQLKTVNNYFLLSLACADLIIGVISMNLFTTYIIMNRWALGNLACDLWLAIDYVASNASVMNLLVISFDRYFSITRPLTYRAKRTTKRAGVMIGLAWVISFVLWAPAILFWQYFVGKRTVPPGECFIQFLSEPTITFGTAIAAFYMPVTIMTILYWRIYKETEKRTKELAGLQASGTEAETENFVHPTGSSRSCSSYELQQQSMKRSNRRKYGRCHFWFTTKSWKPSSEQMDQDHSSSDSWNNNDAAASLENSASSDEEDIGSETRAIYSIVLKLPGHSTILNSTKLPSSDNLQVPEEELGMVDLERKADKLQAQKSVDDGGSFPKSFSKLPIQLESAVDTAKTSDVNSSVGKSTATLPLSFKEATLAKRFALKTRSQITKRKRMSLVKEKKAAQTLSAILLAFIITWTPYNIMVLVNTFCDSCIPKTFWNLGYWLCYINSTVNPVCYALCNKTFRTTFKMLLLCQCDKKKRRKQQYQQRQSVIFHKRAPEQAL
In assay [6] the target is Histamine H3 receptor (Homo sapiens) (UniProt Q9Y5N1).
Sequence of Histamine H3 receptor (Homo sapiens) (Q9Y5N1 whole entry): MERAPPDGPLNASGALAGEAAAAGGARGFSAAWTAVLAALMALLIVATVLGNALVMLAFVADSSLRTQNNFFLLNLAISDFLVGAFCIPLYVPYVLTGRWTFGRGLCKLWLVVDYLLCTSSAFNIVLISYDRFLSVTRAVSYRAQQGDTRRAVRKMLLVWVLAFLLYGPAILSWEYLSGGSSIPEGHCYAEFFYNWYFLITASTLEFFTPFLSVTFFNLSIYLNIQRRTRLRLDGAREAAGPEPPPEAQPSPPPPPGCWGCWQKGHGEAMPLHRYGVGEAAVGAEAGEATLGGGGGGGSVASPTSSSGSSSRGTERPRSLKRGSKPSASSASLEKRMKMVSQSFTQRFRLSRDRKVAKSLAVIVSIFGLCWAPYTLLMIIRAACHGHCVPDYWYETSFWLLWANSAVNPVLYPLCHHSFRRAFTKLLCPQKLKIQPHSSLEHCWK
Assay [7] concerns the target Histamine H4 receptor (Homo sapiens) (UniProt Q9H3N8).
The target of assay [8] is T2, Alpha-2C adrenergic receptor (Homo sapiens) (UniProt P18825).
T2 sequence (whole entry): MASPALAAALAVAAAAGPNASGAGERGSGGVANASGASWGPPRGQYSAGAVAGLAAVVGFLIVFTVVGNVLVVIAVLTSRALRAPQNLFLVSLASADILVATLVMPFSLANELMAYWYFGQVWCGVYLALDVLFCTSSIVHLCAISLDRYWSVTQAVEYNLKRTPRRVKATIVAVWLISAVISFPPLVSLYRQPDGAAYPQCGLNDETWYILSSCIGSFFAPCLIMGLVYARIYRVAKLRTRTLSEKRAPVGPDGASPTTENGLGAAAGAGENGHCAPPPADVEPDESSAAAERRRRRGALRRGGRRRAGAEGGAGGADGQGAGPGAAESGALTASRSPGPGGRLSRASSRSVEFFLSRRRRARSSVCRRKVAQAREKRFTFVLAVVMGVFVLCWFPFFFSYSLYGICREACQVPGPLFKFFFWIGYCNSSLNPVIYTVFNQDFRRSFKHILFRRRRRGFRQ

Assay [9] concerns the target Sodium-dependent serotonin transporter (Homo sapiens) (UniProt P31645).
Assay [10] concerns the target 5-hydroxytryptamine receptor 7 (Homo sapiens) (UniProt P34969).
Assay [11] concerns the target T3, D(4) dopamine receptor (Homo sapiens) (UniProt P21917).
T3 sequence (whole entry): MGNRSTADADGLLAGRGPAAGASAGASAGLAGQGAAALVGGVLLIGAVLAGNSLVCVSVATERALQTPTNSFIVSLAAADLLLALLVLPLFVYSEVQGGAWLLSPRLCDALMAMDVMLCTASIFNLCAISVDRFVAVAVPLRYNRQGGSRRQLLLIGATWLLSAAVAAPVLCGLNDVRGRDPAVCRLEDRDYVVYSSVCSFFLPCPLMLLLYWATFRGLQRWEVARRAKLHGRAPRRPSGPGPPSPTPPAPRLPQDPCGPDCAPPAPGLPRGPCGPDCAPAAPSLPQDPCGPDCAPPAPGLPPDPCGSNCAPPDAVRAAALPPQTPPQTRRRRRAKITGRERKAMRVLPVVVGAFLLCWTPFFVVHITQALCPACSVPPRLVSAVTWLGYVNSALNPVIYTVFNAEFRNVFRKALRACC

Assay [12] deals with T4, 5-hydroxytryptamine receptor 1A (Homo sapiens) (UniProt P08908).
T4 sequence (whole entry): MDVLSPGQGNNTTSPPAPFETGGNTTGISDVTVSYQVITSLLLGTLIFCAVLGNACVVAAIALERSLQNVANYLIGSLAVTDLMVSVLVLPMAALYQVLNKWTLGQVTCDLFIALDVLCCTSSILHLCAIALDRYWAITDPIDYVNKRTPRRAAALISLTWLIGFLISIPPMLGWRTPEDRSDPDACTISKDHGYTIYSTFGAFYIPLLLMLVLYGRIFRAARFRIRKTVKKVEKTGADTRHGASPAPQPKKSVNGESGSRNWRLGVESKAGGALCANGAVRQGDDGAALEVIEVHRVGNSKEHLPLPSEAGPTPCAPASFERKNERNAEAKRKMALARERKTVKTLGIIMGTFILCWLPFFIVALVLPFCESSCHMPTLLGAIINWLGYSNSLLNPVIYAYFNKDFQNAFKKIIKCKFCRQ

For assay [13], the target named is T5, 5-hydroxytryptamine receptor 3A (Homo sapiens) (UniProt P46098).
T5 sequence (whole entry): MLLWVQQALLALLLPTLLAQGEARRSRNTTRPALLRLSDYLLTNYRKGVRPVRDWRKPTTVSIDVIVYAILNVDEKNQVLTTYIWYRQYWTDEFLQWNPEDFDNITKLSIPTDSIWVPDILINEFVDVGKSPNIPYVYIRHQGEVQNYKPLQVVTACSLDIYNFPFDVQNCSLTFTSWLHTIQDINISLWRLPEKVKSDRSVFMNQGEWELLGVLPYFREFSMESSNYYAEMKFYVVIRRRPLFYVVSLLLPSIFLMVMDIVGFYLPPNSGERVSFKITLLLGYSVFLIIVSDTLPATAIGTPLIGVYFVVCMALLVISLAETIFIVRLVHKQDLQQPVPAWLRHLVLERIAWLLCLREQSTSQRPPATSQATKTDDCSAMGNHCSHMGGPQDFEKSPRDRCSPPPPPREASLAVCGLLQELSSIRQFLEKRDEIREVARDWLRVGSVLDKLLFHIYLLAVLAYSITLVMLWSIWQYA

In assay [14] the target is Sodium-dependent noradrenaline transporter (Homo sapiens) (UniProt P23975).
Sequence of Sodium-dependent noradrenaline transporter (Homo sapiens) (P23975 whole entry): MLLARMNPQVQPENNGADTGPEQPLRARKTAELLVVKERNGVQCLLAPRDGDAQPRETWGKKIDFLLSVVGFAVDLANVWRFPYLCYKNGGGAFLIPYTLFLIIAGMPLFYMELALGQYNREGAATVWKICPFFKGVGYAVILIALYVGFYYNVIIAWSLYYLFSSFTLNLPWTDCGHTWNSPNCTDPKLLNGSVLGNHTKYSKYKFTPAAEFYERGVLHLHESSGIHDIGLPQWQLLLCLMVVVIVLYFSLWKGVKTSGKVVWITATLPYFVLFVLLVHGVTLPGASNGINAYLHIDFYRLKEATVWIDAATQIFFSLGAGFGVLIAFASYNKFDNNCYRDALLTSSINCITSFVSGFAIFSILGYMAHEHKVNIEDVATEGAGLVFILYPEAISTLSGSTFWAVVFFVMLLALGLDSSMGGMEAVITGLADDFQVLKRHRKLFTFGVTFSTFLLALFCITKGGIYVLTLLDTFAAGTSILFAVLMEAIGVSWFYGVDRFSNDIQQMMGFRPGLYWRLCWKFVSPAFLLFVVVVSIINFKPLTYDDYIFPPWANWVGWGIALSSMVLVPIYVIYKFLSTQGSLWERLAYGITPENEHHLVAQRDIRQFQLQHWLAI

Sequence of 5-hydroxytryptamine receptor 7 (Homo sapiens) (P34969 whole entry): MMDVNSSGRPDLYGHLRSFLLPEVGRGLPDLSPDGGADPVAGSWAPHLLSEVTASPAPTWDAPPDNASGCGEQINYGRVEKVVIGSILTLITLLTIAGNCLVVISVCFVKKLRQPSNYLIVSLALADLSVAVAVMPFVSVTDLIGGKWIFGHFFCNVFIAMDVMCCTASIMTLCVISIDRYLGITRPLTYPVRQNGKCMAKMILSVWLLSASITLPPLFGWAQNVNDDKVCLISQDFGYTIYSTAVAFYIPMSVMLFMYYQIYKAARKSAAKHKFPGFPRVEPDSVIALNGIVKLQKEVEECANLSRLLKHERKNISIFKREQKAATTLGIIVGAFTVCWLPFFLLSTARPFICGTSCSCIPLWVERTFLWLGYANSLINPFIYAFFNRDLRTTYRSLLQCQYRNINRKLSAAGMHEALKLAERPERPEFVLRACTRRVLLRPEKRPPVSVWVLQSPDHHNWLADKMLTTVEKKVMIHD
Sequence of D(3) dopamine receptor (Homo sapiens) (P35462 whole entry): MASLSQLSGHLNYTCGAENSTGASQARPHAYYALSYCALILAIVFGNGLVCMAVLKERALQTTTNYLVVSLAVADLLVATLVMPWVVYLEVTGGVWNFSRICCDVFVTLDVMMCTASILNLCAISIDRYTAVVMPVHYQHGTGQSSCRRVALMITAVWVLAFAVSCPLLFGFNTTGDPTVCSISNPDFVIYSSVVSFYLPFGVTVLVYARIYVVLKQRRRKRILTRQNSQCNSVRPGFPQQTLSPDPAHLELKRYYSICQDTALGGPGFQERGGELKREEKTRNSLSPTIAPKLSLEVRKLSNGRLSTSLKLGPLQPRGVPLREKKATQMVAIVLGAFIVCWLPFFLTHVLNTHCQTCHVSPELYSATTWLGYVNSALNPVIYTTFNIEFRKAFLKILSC
Sequence of Sodium-dependent serotonin transporter (Homo sapiens) (P31645 whole entry, looked up): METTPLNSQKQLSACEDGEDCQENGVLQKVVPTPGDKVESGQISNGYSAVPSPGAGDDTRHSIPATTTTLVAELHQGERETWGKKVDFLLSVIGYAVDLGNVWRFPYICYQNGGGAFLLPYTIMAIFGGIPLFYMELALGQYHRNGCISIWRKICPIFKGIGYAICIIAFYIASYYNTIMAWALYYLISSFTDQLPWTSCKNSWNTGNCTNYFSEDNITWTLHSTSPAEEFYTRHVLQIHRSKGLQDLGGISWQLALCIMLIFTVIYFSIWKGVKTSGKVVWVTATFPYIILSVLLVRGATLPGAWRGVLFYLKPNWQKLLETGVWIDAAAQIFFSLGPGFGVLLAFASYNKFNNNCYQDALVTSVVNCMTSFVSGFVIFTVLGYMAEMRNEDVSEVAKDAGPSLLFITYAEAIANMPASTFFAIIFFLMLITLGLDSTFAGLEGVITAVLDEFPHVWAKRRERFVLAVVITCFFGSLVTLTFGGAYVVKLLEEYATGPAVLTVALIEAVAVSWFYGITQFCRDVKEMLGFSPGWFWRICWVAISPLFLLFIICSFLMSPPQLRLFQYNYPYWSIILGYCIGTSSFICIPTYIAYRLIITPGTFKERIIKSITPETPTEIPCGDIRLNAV
Sequence of Histamine H4 receptor (Homo sapiens) (Q9H3N8 whole entry): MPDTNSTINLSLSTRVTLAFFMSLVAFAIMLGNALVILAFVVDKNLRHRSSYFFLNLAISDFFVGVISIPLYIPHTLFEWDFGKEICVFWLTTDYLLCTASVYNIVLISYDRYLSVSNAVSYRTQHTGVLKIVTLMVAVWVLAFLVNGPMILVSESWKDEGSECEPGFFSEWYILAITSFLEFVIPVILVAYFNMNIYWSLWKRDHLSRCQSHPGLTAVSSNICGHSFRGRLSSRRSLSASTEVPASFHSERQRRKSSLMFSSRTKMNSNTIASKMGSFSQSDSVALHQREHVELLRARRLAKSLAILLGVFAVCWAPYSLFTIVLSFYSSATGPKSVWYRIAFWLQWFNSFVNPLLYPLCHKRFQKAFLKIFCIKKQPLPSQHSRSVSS
Sequence of 5-hydroxytryptamine receptor 1E (Homo sapiens) (P28566 whole entry): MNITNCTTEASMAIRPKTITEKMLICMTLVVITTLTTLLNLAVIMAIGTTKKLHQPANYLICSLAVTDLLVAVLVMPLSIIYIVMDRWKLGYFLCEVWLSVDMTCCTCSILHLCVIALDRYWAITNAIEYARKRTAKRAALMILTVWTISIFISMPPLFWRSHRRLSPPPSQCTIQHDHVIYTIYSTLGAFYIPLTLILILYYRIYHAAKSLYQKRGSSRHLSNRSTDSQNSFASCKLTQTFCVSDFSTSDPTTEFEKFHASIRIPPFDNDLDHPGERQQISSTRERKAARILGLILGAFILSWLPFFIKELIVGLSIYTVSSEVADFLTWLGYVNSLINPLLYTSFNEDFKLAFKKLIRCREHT

As usually defined, the inhibition is the drop in the measured response relative to a control, in per cent. Consider `CCCCCNC(=N)N/N=C/c1c[nH]c2ccc(OC)cc12`, for which the inhibition in assay [1] was 70%; in [2], 20.5%; in [3] it was 77.7%; in assay [4] it was 89%; in assay [5], 7.96%; in assay [6] it was 19%. Also, the inhibition in assay [7] is 27.9%; in assay [8], 94.1%; in [9] it was 57.7%; in [10], 93.6%; in [11], 87.3%; in assay [12], 101%. In assay [13], the inhibition is 70.2%.

As to `CN1C2CCC1CC(OC(c1ccc(F)cc1)c1ccc(F)cc1)C2` (stereo not drawn), the inhibition in assay [1] was 79.5%; in assay [2], 14.3%; in assay [14], 102%; in [4] it was 96.1%; in [5], 95.9%; in [6], -0.82%. In addition, the inhibition was 67.8% in assay [7]; 15.4% in assay [9]; 92.4% in assay [10]; 21% in assay [11]; 21.6% in assay [12]; 79.5% in [13].

Consider `Cc1cc(C(=O)N2Cc3cnn(C)c3Nc3ccccc32)ccc1CNC(=O)N1CCC[C@H]1C(=S)N1CCCN(C)CC1`, for which the inhibition in assay [1] is 87.3%; in assay [2] it was 4.73%; in assay [3], 13.1%; in [5] it was 65.2%; in assay [8], -5.77%; in [9], -2.9%. The values for the inhibition in assay [10], in assay [12] and in assay [13] were 0.75%, -3.18% and 25.9%, respectively.

As to `CN1C(=O)[C@@H](NC(=O)c2cc3ccccc3[nH]2)N=C(c2ccccc2)c2ccccc21`, the inhibition was 26.4% in assay [1]; -6.92% in assay [2]; 28.5% in [14]; 11.2% in assay [3]; 25.7% in assay [4]; 5.34% in [6]. Besides, the inhibition is -4.47% in assay [7]; -0.17% in assay [8]; -8.05% in assay [9]; 13.6% in assay [10]; -8.65% in [11]; -1.26% in assay [12]. Besides, the inhibition in [13] is 2.09%.

For `Nc1nc(NCCc2ccc(O)cc2)nc2nc(-c3ccco3)nn12`, the inhibition is 19.9% in [1]; 44.1% in [14]; 19% in assay [3]; -6.51% in [5]; 9.88% in assay [8]; -5.81% in [9]. The inhibition in assay [10] is 13.5%; in [11], 4.31%; in assay [12] it was -6.94%; in assay [13] it was 1.4%.

With `CC[C@@H]1CN2C(=O)N(C)c3nc(-c4ccccc4)[nH]c3C2=N1`, the inhibition in assay [1] is 27.9%; in assay [2] it was 23.8%; in [14] it was 19.5%; in [3] it was -7.63%; in assay [4], 10.3%; in assay [5] it was -6.97%. The inhibition was -5.22% in assay [6]; -3.92% in assay [7]; -1.57% in assay [8]; -6.29% in assay [9]; 21.6% in assay [10]; 10.4% in assay [11]. For the same compound, the inhibition in assay [12] is 12%.

In the case of `COc1ccc(/C=C/CCCCOc2ccc(C(=O)c3cccc(C(=O)O)c3)cc2CCC(=O)O)cc1`, the inhibition in assay [1] was 56.1%; in [2] it was 8.42%; in assay [14], -6.68%; in assay [4] it was 29.1%; in assay [5], -5.39%; in assay [6], 10.8%. The inhibition in [7] was 4.74%; in [8], 1.56%; in [9], 11.1%; in [10], -2.54%; in assay [12] it was 30.3%; in [13], -4.61%.

`O=C(Cc1ccc(Cl)c(Cl)c1)N1CCCC[C@H]1CN1CCCC1`: the inhibition in assay [1] was 18.5%; in assay [2] it was 1.08%; in assay [14], 23.7%; in assay [3] it was 30.3%; in assay [4] it was -5.65%; in assay [6], 37.3%. Also, the inhibition was -9.98% in [7]; 24.5% in assay [8]; 33.9% in assay [9]; 31.1% in assay [10]; 79.7% in assay [11]; -1.23% in assay [12]. The inhibition in assay [13] is 5.92%.

In the case of `Cc1cccc([C@H](C)c2c[nH]cn2)c1C`, the inhibition was 21.5% in assay [1]; -0.76% in assay [2]; 50.9% in assay [14]; 104% in assay [3]; 1.41% in assay [4]; 2.75% in [6]. Moreover, the inhibition in [7] is 11.3%; in assay [8] it was 99.1%; in assay [9] it was -4.26%; in assay [10], 68.1%; in assay [11] it was 26.9%; in [12], -0.33%. Further, in assay [13], the inhibition was 13.3%.

`CCCCCCCCCCCCCCCCOC[C@H](COP(=O)([O-])OCC[N+](C)(C)C)OC(C)=O`: the inhibition is 72.5% in [1]; 11.7% in [2]; 4.6% in assay [4]; 19.2% in assay [5]; -0.67% in assay [6]; 3.24% in assay [8]. Moreover, the inhibition in [9] was 0.76%; in [10], -1.59%; in assay [11], 16.4%; in [12], 2.85%.

Source of the values: ChEMBL document CHEMBL5442219.
